# Results from PubChem BioAssay AID1259407 (Chemical Carcinogenesis Research Information System (CCRIS), 2018).
# Calls of active or inactive are those of the source. No rule for the calls is given here.
# Tested on: CCRIS mutagenicity, Ames/micronucleus/aberration tests
# Experiment: CCRIS mutagenicity studies
smiles,measurement,setting,value
Nc1nc(-c2ccc([N+](=O)[O-])cc2)nc2nc[nH]c12,mutagenic call,"Test System: AMES SALMONELLA TYPHIMURIUM, Strain/Indicator: TA98(1,8-DNP), Metabolic Activation: NONE, Method: PREINCUBATION",active; positive
same,mutagenic call,"Test System: AMES SALMONELLA TYPHIMURIUM, Strain/Indicator: TA98(1,8-DNP), Metabolic Activation: RAT, LIVER, S-9, PCB, Method: PREINCUBATION",active; positive
same,mutagenic call,"Test System: AMES SALMONELLA TYPHIMURIUM, Strain/Indicator: TA98(NR), Metabolic Activation: NONE, Method: PREINCUBATION",active; positive
same,mutagenic call,"Test System: AMES SALMONELLA TYPHIMURIUM, Strain/Indicator: TA98(NR), Metabolic Activation: RAT, LIVER, S-9, PCB, Method: PREINCUBATION",active; positive
same,mutagenic call,"Test System: AMES SALMONELLA TYPHIMURIUM, Strain/Indicator: TA98, Metabolic Activation: NONE, Method: PREINCUBATION",active; positive
same,mutagenic call,"Test System: AMES SALMONELLA TYPHIMURIUM, Strain/Indicator: TA98, Metabolic Activation: RAT, LIVER, S-9, PCB, Method: PREINCUBATION",active; positive
same,mutagenic call,"Test System: AMES SALMONELLA TYPHIMURIUM, Strain/Indicator: TA100(1,8-DNP), Metabolic Activation: NONE, Method: PREINCUBATION",active; positive
same,mutagenic call,"Test System: AMES SALMONELLA TYPHIMURIUM, Strain/Indicator: TA100(1,8-DNP), Metabolic Activation: RAT, LIVER, S-9, PCB, Method: PREINCUBATION",active; positive
same,mutagenic call,"Test System: AMES SALMONELLA TYPHIMURIUM, Strain/Indicator: TA100(NR), Metabolic Activation: NONE, Method: PREINCUBATION",active; positive
same,mutagenic call,"Test System: AMES SALMONELLA TYPHIMURIUM, Strain/Indicator: TA100(NR), Metabolic Activation: RAT, LIVER, S-9, PCB, Method: PREINCUBATION",active; positive
same,mutagenic call,"Test System: AMES SALMONELLA TYPHIMURIUM, Strain/Indicator: TA100, Metabolic Activation: NONE, Method: PREINCUBATION",active; positive
same,mutagenic call,"Test System: AMES SALMONELLA TYPHIMURIUM, Strain/Indicator: TA100, Metabolic Activation: RAT, LIVER, S-9, PCB, Method: PREINCUBATION",active; positive
same,mutagenic call,"Test System: AMES SALMONELLA TYPHIMURIUM, Strain/Indicator: YG1020, Metabolic Activation: NONE, Method: PREINCUBATION",active; positive
same,mutagenic call,"Test System: AMES SALMONELLA TYPHIMURIUM, Strain/Indicator: YG1020, Metabolic Activation: RAT, LIVER, S-9, PCB, Method: PREINCUBATION",active; positive
same,mutagenic call,"Test System: AMES SALMONELLA TYPHIMURIUM, Strain/Indicator: YG1021, Metabolic Activation: NONE, Method: PREINCUBATION",active; positive
same,mutagenic call,"Test System: AMES SALMONELLA TYPHIMURIUM, Strain/Indicator: YG1021, Metabolic Activation: RAT, LIVER, S-9, PCB, Method: PREINCUBATION",active; positive
same,mutagenic call,"Test System: AMES SALMONELLA TYPHIMURIUM, Strain/Indicator: YG1024, Metabolic Activation: NONE, Method: PREINCUBATION",active; positive
same,mutagenic call,"Test System: AMES SALMONELLA TYPHIMURIUM, Strain/Indicator: YG1024, Metabolic Activation: RAT, LIVER, S-9, PCB, Method: PREINCUBATION",active; positive
same,mutagenic call,"Test System: AMES SALMONELLA TYPHIMURIUM, Strain/Indicator: YG1025, Metabolic Activation: NONE, Method: PREINCUBATION",active; positive
same,mutagenic call,"Test System: AMES SALMONELLA TYPHIMURIUM, Strain/Indicator: YG1025, Metabolic Activation: RAT, LIVER, S-9, PCB, Method: PREINCUBATION",active; positive
same,mutagenic call,"Test System: AMES SALMONELLA TYPHIMURIUM, Strain/Indicator: YG1026, Metabolic Activation: NONE, Method: PREINCUBATION",active; positive
same,mutagenic call,"Test System: AMES SALMONELLA TYPHIMURIUM, Strain/Indicator: YG1026, Metabolic Activation: RAT, LIVER, S-9, PCB, Method: PREINCUBATION",active; positive
same,mutagenic call,"Test System: AMES SALMONELLA TYPHIMURIUM, Strain/Indicator: YG1029, Metabolic Activation: NONE, Method: PREINCUBATION",active; positive
same,mutagenic call,"Test System: AMES SALMONELLA TYPHIMURIUM, Strain/Indicator: YG1029, Metabolic Activation: RAT, LIVER, S-9, PCB, Method: PREINCUBATION",active; positive
COC(=O)c1cc2ccc3ccc[n+](C)c3c2[nH]1,mutagenic call,"Test System: AMES SALMONELLA TYPHIMURIUM, Strain/Indicator: TA98, Metabolic Activation: NONE, Method: STANDARD PLATE",inactive; negative
same,mutagenic call,"Test System: E. COLI, Strain/Indicator: WP2 TM9, Metabolic Activation: NONE, Method: STANDARD PLATE",inactive; negative
